From patent US7199138B2, “Substituted anthranilamides for controlling invertebrate pests” (E. I. du Pont de Nemours and Company, priority 2001, dated 2007) come the findings set out here.

`Cc1cc(NC(=O)c2ccccc2)cc(C(=O)NC(C)C)c1NC(=O)c1cc(C(F)(F)F)nn1-c1ncccc1Cl` showed a melting point of 231 to 233 °C.
